Converted amounts (≈) assume the structure as drawn. Where two headings read alike, the source gives them in different places.
What was measured:
[1] = Stability experiment: content and related substance by HPLC; assay type: physicochemical
Procedure: (§1) 1. Stability experiment of crystal form A and crystal form B-1 • (A) An appropriate amount of samples were weighed respectively and placed open at room temperature and under accelerated conditions (40° C./75% RH), on day 0, 7, 14, and 28 • (B) Crystal form A was placed in an oven at 60° C., on day 14, 32.
(§2) The content and related substance changes were detected by HPLC, and XRD was measured at the same time to investigate stability of the crystal forms.

[2] = Stability experiment: crystal form by XRD; assay type: physicochemical
Procedure: as §1, §2

Solubility experiment = assay type: physicochemical; conditions: for solubility in aqueous medium (summary): aqueous media of Table 6
[3] = Hygroscopicity test (DVS); assay type: physicochemical; conditions: for hygroscopicity (in words): 80% RH at 25° C.; for hygroscopic weight gain: humidity increases to 80% RH at 25° C.
Procedure: The Dynamic Vapor Sorption (DVS) curve: acquired on the DVS Intrinsic of Surface Measurement Systems. The relative humidity at […] is corrected with the deliquescence points of LiCl, Mg (NO3)2 and KCl.

[4] = Thermogravimetric analysis; assay type: physicochemical; conditions: under 50° C.-90° C.
Text: TGA and DSC pattern: TGA and DSC pattern were collected on TA Q500/5000 thermogravimetric analyzer and TA Q200/2000 differential scanning calorimeter respectively.

CDK1 = biological target: T1, CDK1 (Homo sapiens, UniProt P06493); test: Kinase test in vitro (LANCE Ultra, Ulight-4EBP1); assay type: biochemical
T1 construct: purchased BPS
Text: (§3) Recombinant CDK1, CCNB1 and CDK9, and CCNT were purchased from BPS; CDK2, CCNA1, CDK4, CCND1 and CDK6, and CCND1 were purchased from Invitrogen; CDK4, CycD3 and CDK6, and CycD3 were purchased from Carna. Adenosine triphosphate (ATP) was purchased from Life tech. Substrate Ulight-4EBP1 and the corresponding detection antibody were purchased from Perkinelmer. LANCE Ultra system from Perkinelmer is used as the detection system.
(§4) In the kinase test, a compound to be tested was 1:3 diluted for 8 gradient points and added into a reaction plate, and then an appropriate amount of recombinase was added. A buffer [50 mM HEPES pH7.5, 10 mM MgCl2, 3 mM MnCl2, 1 mM EGTA, 0.01% Tween-20, 1 mM TCEP] containing ATP, Ulight-4EBP1 premix at a predetermined concentration was subsequently added, and the kinase reaction began at room temperature. A test solution pre-mixed with 10 mM EDTA and detection antibody was added after a suitable reaction time, and then the fluorescence value was read on Tecan infinite pro after reacting for 1 hour at room temperature. The IC50 was calculated using a four-factor model fitting in a XLfit software.

CDK2 = biological target: T2, CDK2 (Homo sapiens, UniProt P24941); test: Kinase test in vitro (LANCE Ultra, Ulight-4EBP1); assay type: biochemical
T2 construct: purchased Invitrogen
Text: as §3, §4

CDK4 = biological target: T3, CDK4 (Homo sapiens, UniProt P11802); test: Kinase test in vitro (LANCE Ultra, Ulight-4EBP1); assay type: biochemical
T3 construct: purchased Invitrogen or Carna
Text: as §3, §4

CDK6 = biological target: T4, CDK6 (Homo sapiens, UniProt Q00534); test: Kinase test in vitro (LANCE Ultra, Ulight-4EBP1); assay type: biochemical
T4 construct: purchased Invitrogen or Carna
Text: as §3, §4

[5] = accelerated conditions 40° C./75% RH, open, on day 7
[6] = accelerated conditions 40° C./75% RH, open, on day 14
[7] = accelerated conditions 40° C./75% RH, open, on day 28
[8] = accelerated conditions 40° C./75% RH, open, on day 28, footnote: content obviously higher, measurement has errors
[9] = room temperature and accelerated conditions (40° C./75% RH), up to 28 days
[10] = room temperature, open, on day 7
[11] = room temperature, open, on day 14
[12] = room temperature, open, on day 28
[13] = room temperature, open, on day 28, footnote: content obviously higher, measurement has errors
[14] = accelerated conditions for 28 days
[15] = 0.1 M HCl, calculated for crystal form I
[16] = Acetone, calculated for crystal form I
[17] = Acetonitrile, calculated for crystal form I
[18] = Ethanol, calculated for crystal form I
[19] = Ethyl acetate, calculated for crystal form I
[20] = H2O, calculated for crystal form I
[21] = Isopropanol, calculated for crystal form I
[22] = Methanol, calculated for crystal form I
[23] = Tetrahydrofuran, calculated for crystal form I
[24] = medium pH4.5, calculated for crystal form I
[25] = medium pH6.8, calculated for crystal form I
[26] = medium pH7.4, calculated for crystal form I

T4 sequence (Q00534 whole entry): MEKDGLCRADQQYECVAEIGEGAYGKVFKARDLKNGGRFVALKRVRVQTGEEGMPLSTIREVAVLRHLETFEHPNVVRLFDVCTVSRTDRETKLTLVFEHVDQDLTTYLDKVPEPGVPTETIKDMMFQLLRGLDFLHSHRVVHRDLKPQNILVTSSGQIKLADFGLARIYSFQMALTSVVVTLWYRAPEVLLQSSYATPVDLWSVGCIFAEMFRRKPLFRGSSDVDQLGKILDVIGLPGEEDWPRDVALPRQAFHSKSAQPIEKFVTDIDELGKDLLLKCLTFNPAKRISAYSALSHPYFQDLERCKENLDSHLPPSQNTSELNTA
T4 sequence (P24385 whole entry partner): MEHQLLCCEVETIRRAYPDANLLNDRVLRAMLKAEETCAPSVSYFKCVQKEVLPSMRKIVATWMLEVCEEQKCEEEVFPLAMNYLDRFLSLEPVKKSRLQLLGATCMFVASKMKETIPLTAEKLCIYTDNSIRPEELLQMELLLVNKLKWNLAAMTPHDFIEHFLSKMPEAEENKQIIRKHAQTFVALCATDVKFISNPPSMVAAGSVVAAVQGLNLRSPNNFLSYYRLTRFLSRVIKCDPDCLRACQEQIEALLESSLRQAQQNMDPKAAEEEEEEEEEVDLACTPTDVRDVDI
T3 sequence (P11802 whole entry): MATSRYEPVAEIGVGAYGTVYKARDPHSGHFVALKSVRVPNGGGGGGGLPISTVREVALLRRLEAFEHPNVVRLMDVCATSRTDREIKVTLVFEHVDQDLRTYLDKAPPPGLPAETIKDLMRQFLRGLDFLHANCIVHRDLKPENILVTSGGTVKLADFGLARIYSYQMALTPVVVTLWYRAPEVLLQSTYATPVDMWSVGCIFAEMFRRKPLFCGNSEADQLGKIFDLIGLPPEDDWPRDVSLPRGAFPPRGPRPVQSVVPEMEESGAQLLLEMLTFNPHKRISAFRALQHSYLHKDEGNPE
T3 sequence (P24385 whole entry partner): as the sequence (P24385 whole entry partner) above
T1 sequence (P06493 whole entry): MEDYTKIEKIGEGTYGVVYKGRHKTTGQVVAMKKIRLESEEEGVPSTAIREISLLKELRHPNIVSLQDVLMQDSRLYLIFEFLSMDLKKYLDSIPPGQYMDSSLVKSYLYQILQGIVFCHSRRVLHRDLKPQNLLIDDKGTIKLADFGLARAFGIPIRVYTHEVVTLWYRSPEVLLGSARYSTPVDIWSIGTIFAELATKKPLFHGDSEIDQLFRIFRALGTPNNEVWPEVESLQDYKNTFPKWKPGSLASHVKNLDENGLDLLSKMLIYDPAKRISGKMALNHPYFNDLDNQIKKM
T1 sequence (P14635 whole entry partner): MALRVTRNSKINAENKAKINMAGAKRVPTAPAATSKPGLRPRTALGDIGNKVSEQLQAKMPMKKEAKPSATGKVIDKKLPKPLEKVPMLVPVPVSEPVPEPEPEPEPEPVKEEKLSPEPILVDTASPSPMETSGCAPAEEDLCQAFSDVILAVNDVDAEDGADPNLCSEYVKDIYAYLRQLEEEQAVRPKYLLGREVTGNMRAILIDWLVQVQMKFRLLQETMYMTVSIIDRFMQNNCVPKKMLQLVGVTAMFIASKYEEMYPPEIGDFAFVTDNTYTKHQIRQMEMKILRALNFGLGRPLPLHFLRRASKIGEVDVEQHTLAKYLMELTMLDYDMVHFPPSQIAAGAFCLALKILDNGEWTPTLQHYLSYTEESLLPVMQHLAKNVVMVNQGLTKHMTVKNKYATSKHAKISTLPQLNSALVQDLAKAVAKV

Content [1, 5] [%] | Impurity peak [1, 5] | Content [1, 6] [%] | Impurity peak [1, 6] | Impurity peak [1, 7] | Content [1, 8] [%] | Solubility (Solubility experiment; [15]) [mg/mL] | Solubility (Solubility experiment; [16]) [mg/mL] | Solubility (Solubility experiment; [17]) [mg/mL] | Solubility (Solubility experiment; [18]) [mg/mL] | Solubility (Solubility experiment; [19]) [mg/mL] | Solubility (Solubility experiment; [20]) [mg/mL] | Solubility (Solubility experiment; [21]) [mg/mL] | Solubility (Solubility experiment; [22]) [mg/mL] | Solubility (Solubility experiment; [23]) [mg/mL] | Solubility (Solubility experiment; [24]) [mg/mL] | Solubility (Solubility experiment; [25]) [mg/mL] | Solubility (Solubility experiment; [26]) [mg/mL] | hygroscopicity (in words) [3] | hygroscopic weight gain [3] [%] | SMILES | other results
100.97 | none | 104.46 | none | none | 113.75 | >58.10 | 0.23 (≈ 0.502 mM) | 0.22 (≈ 0.48 mM) | 6.97 (≈ 15.2 mM) | 0.03 (≈ 0.0654 mM) | 11.59 (≈ 25.3 mM) | 0.26 (≈ 0.567 mM) | 41.04 (≈ 89.5 mM) | 0.15 (≈ 0.327 mM) | 14.30 (≈ 31.2 mM) | 19.66 (≈ 42.9 mM) | 17.86 (≈ 38.9 mM) | slightly hygroscopic | 0.613 | CCN1CCN(Cc2ccc(Nc3ncc4c(n3)-c3c(nc(C5CC5)n3C(C)C)C4)nc2)CC1 [Crystal form A] | chemical stability (in words) ([1]; 60° C., 14 and 32 days): chemical properties are stable; Content ([1]; on day 0): 103.14%; Impurity peak ([1]; on day 0): none; Content ([1]; oven at 60° C., on day 14): 106.2%; Impurity peak ([1]; oven at 60° C., on day 14): none; Content ([1]; oven at 60° C., on day 32): 104.5%; Impurity peak ([1]; oven at 60° C., on day 32): none; chemical stability (in words) [1, 9]: chemical properties are stable; Content [1, 10]: 103.82%; Impurity peak [1, 10]: none; Content [1, 11]: 104.20%; Impurity peak [1, 11]: none; Impurity peak [1, 12]: none; Content [1, 13]: 116.27%; crystal form stability by XRD (in words) [2, 14]: crystal form is stable; crystal form stability by XRD (in words) ([2]; high temperature of 60° C. for 14 days and 32 days): not transformed; solubility in aqueous medium (summary) (Solubility experiment): more than 11 mg/ml
94.36 | none | 95.19 | none | none | 110.05 | >40.10 | >41.11 | 0.28 (≈ 0.611 mM) | 19.59 (≈ 42.7 mM) | 0.02 (≈ 0.0436 mM) | >40.85 | 0.58 (≈ 1.26 mM) | >45.19 | 0.39 (≈ 0.85 mM) | >29.40 | >27.40 | >25.65 | has hygroscopicity | 6.88 | CCN1CCN(Cc2ccc(Nc3ncc4c(n3)-c3c(nc(C5CC5)n3C(C)C)C4)nc2)CC1 [Crystal form B-1] | Content ([1]; on day 0): 94.43%; Impurity peak ([1]; on day 0): none; chemical stability (in words) [1, 9]: chemical properties are stable; Content [1, 10]: 96.50%; Impurity peak [1, 10]: none; Content [1, 11]: 96.45%; Impurity peak [1, 11]: none; Impurity peak [1, 12]: none; Content [1, 13]: 107.12%; crystal form stability by XRD (in words) [2, 14]: crystal form is stable; solubility in aqueous medium (summary) (Solubility experiment): more than 25 mg/ml; weight loss (TGA) [4]: about 7.4%
 |  |  |  |  |  |  | >5 | >1 | >50 | >10 | 0.36 (≈ 0.785 mM) | >20 | >100 | >100 | 9.66 (≈ 21.1 mM) | 2.85 (≈ 6.21 mM) | 1.08 (≈ 2.35 mM) | has hygroscopicity | 8.84 | CCN1CCN(Cc2ccc(Nc3ncc4c(n3)-c3c(nc(C5CC5)n3C(C)C)C4)nc2)CC1 [Crystal form I] | solubility ranking of the crystal forms (in words) (Solubility experiment): the lowest solubility; Solubility (Solubility experiment; 0.1 M HCl, simulated gastric fluid, thermodynamic from solid, 0.1 M HCl, calculated for crystal form I, read-out: Solubility): 34.7 mg/mL (≈ 75.7 mM); Solubility (Solubility experiment; 50% acetonitrile, aqueous with cosolvent or surfactant or cyclodextrin, thermodynamic from solid, 50% Acetonitrile, calculated for crystal form I, read-out: Solubility): > 25 mg/mL; Solubility (Solubility experiment; dimethyl sulfoxide, organic solvent or mixture, thermodynamic from solid, Dimethyl sulfoxide, calculated for crystal form I, read-out: Solubility): > 6.6 mg/mL; Solubility (Solubility experiment; methyl tert-butyl ether, organic solvent or mixture, thermodynamic from solid, Methyl tert-butyl ether, calculated for crystal form I, read-out: Solubility): > 2 mg/mL; Solubility (Solubility experiment; n-heptane, organic solvent or mixture, thermodynamic from solid, N-heptane, calculated for crystal form I, read-out: Solubility): < 2 mg/mL
 |  |  |  |  |  | >44.74 | 11.47 (≈ 25 mM) | >16.64 | >41.86 | 11.48 (≈ 25 mM) | >38.91 | >42.89 | >30.41 | 39.09 (≈ 85.2 mM) | >35.09 | >33.57 | >38.78 | very hygroscopic | 30.74 | CCN1CCN(Cc2ccc(Nc3ncc4c(n3)-c3c(nc(C5CC5)n3C(C)C)C4)nc2)CC1 [Crystal form K-1] | solubility ranking of the crystal forms (in words) (Solubility experiment): the best solubility; Solubility (Solubility experiment; thermodynamic from solid, all solvents and media of Table 6, read-out: solubility in organic solvents and aqueous medium (summary)): 11 to 45 mg/mL (≈ 24 to 98.1 mM)
 |  |  |  |  |  |  |  |  |  |  |  |  |  |  |  |  |  |  |  | Cc1c2c(nn1C)CCc1cnc(Nc3ccc(N4CCN(C)CC4)cc3)nc1-2 [compound 1, reference compound] | IC50 (CDK1): 93 nM; inhibitory activity against CDK1 (in words) (CDK1): strong inhibitory activity; IC50 (CDK2): 23 nM; inhibitory activity against CDK2 (in words) (CDK2): strong inhibitory activity; IC50 (CDK4): 8 nM; inhibitory activity against CDK4 (in words) (CDK4): strong inhibitory activity; IC50 (CDK6): 53 nM; inhibitory activity against CDK6 (in words) (CDK6): strong inhibitory activity

Source: patent US20210214358A1, “CDK4/6 INHIBITOR AND PHARMACEUTICALLY ACCEPTABLE SALT AND POLYMORPH THEREOF AND USE THEREOF” (SHANGHAI HAIYAN PHARMACEUTICAL TECHNOLOGY CO., LTD., priority 2018, published 2021)
